Reference: patent US20150018301A1, “LRRK-2-Mediated Neuronal Toxicity” (THE JOHNS HOPKINS UNIVERSITY, priority 2009, published 2015)

Experiments:
[1] = molecular target: T1, LRRK2 WT (Homo sapiens, UniProt Q5S007); test: In vitro kinase assay: LRRK2 autophosphorylation; format: biochemical; conditions: for LRRK2 autophosphorylation Average ± SEM: compound 16 μM, phosphorylation normalized to absence of compound, mean ± S.E.M. of three experiments
[2] = molecular target: T1, LRRK2 WT; test: In vitro kinase assay: LRRK2-mediated MBP phosphorylation; format: biochemical; conditions: for MBP phosphorylation Average ± SEM: compound 16 μM, 30° C., 15 min, normalized to absence of compound, mean ± S.E.M. of three experiments

T1 sequence (Q5S007 whole entry): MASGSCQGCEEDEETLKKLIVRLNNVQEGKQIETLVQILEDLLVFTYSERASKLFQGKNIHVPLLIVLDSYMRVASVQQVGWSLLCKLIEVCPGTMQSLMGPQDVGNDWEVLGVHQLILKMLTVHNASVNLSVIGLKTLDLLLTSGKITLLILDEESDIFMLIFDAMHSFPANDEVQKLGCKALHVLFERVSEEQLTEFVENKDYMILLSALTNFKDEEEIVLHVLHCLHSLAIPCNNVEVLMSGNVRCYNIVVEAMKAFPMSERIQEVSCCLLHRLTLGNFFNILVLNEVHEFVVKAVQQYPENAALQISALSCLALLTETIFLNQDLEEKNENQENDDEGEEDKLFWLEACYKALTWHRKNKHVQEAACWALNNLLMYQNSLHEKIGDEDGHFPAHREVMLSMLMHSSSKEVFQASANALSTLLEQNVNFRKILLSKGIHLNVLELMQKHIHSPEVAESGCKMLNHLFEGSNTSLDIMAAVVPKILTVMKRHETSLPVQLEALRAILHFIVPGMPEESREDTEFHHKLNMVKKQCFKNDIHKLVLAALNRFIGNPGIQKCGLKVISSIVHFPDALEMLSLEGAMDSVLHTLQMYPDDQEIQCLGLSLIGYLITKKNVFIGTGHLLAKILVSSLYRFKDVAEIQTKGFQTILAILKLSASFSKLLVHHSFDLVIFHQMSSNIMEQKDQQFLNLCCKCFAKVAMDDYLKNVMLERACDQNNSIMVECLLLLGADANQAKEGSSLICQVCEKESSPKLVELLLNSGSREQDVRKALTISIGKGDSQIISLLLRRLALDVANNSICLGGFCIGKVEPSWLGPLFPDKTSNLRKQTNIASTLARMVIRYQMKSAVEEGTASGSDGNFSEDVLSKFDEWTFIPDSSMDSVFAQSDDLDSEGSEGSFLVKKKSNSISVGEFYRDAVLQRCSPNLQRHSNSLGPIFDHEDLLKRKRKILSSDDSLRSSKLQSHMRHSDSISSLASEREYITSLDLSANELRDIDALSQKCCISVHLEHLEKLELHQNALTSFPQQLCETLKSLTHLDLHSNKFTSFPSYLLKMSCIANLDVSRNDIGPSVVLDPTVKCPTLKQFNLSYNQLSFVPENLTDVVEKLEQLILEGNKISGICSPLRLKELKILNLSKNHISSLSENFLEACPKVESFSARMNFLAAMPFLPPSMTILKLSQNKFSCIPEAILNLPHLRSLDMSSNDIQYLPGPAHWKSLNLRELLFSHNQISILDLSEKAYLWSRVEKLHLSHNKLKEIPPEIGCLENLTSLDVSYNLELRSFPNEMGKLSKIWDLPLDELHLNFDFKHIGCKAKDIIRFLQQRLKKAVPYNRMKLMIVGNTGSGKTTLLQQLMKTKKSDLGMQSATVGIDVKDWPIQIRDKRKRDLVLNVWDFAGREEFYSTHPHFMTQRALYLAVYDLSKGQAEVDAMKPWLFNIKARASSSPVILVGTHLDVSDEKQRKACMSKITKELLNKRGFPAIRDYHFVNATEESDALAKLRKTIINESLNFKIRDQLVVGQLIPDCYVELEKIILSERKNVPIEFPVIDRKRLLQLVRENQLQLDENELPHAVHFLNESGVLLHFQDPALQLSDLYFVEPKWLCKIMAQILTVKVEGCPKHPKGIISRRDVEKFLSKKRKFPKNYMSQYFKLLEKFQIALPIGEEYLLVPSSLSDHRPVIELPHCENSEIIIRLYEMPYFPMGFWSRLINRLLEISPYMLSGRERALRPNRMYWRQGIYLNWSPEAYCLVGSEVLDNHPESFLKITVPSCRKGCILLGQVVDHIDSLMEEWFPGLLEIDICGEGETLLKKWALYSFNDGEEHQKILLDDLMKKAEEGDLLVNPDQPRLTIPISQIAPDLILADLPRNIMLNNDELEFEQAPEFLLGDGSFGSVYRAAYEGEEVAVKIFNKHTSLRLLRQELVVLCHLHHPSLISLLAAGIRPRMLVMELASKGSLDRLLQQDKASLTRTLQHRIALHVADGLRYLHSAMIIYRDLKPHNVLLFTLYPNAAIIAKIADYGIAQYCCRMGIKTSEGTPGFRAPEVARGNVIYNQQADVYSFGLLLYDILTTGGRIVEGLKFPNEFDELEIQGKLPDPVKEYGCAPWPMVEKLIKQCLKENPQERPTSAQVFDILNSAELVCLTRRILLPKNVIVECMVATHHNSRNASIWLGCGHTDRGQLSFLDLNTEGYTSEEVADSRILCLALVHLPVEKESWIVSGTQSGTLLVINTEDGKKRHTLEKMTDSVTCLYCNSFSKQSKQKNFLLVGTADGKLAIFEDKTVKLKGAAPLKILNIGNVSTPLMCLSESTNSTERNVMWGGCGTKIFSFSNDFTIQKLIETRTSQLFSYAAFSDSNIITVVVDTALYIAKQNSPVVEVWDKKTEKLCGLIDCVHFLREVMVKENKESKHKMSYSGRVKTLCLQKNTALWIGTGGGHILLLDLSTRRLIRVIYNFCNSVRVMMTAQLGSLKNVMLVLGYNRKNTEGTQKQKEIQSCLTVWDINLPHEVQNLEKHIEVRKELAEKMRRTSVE

Compound | LRRK2 autophosphorylation Average ± SEM [1] | MBP phosphorylation Average ± SEM [2] | effect on LRRK2 autophosphorylation ([1]; screen at 16 μM) | effect on LRRK2-mediated phosphorylation of MBP ([2]; screen at 16 μM)
COCc1cc(O)c(O)c(O)c1-c1c(COC)cc(O)c(O)c1O [Inhibitor 67] | 79.2 ± 24.2 % of control | 123.2 ± 33.8 % of control | – | –
N#CC(C#N)=Cc1ccc(O)c(O)c1 [Inhibitor 11] | 66.9 ± 2.0 % of control | 55.5 ± 56.5 % of control | – | –
O=c1c(-c2ccc(O)cc2)coc2cc(O)ccc12 [Inhibitor 60] | 81.0 ± 31.9 % of control | 141.0 ± 50.8 % of control | – | –
COc1ccc(S(=O)(=O)N(CCO)c2ccccc2CN(C)C/C=C/c2ccc(Cl)cc2)cc1 [Inhibitor 41] | 104.6 ± 26.6 % of control | 164.7 ± 40.0 % of control | – | –
COc1cc(/C=C(\C#N)C(N)=O)cc(CSc2nc3ccccc3s2)c1O [Inhibitor 8] | 81.7 ± 27.1 % of control | 81.5 ± 17.6 % of control | – | –
N#C/C(=C\c1ccc(O)c(O)c1)C(N)=S [Inhibitor 14] | 80.5 ± 32.2 % of control | 110.5 ± 29.3 % of control | – | –
CC(C)n1cnc2c(NCc3ccccc3)nc(NCCO)nc21 [Inhibitor 45] | 56.2 ± 30.8 % of control | 111.7 ± 69.7 % of control | – | –
N#CC(C#N)=Cc1cc(O)c(O)c([N+](=O)[O-])c1 [Inhibitor 17] | 89 ± 54.9 % of control | 116.0 ± 9.8 % of control | – | –
CC(C)(C)c1cc(C=C(C#N)C#N)cc(C(C)(C)C)c1O [Inhibitor 20] | 109.0 ± 19.7 % of control | 120.7 ± 29.4 % of control | – | –
Cl.c1ccc(C2CN3CCSC3=N2)cc1 (stereo not shown) [Inhibitor 79] | 75.0 ± 2.3 % of control | 138.8 ± 33.9 % of control | – | –
CC[C@@H](CO)Nc1nc(NCc2ccccc2)c2ncn(C(C)C)c2n1 [Inhibitor 48] | 69.4 ± 30.1 % of control | 100.1 ± 41.5 % of control | – | –
Cl.O=S(=O)(c1cccc2c(I)cccc12)N1CCCNCC1 [Inhibitor 42] | 87.3 ± 14.8 % of control | 89.4 ± 71.9 % of control | – | –
NCCNS(=O)(=O)c1cccc2cnccc12 [Inhibitor 5] | 53.8 ± 34.5 % of control | 58.3 ± 22.9 % of control | – | –
CC(C)CC(NC(=O)[C@H](CCC(=O)O)NC(=O)CNC(=O)c1ccc(/C=C/C(=O)O)cc1)C(N)=O (stereo partly shown) [Inhibitor 84] | 63.9 ± 12.0 % of control | 124.1 ± 37.2 % of control | – | –
Brc1ccc([C@H]2CN3CCSC3=N2)cc1 [Inhibitor 75] | 75.9 ± 3.9 % of control | 83.2 ± 50.5 % of control | – | –
Oc1cc(O)cc(/C=C/c2ccc(O)c(O)c2)c1 [Inhibitor 23] | 87 ± 38.6 % of control | 93.0 ± 17.8 % of control | – | –
N#CC(=C(/N)Sc1ccccc1N)/C(C#N)=C(\N)Sc1ccccc1N [Inhibitor 2] | 86.9 ± 10.3 % of control | 101.0 ± 105 % of control | – | –
N#CC(C#N)=Cc1ccc(O)cc1 [Inhibitor 83] | 68.6 ± 35.5 % of control | 118.2 ± 51.8 % of control | – | –
CC1(C)[C@H](C=C(Br)Br)[C@@H]1C(=O)O[C@H](C#N)c1cccc(Oc2ccccc2)c1 [Inhibitor 81] | 73.9 ± 2.2 % of control | 99.6 ± 23.1 % of control | – | –
O=c1c(-c2ccc(O)cc2)coc2cc(O)cc(O)c12 [Inhibitor 59] | 69.4 ± 37.9 % of control | 63.1 ± 66.7 % of control | – | –
CC1CNCCN1S(=O)(=O)c1cccc2cnccc12 (stereo not shown) [Inhibitor 4] | 80.3 ± 8.2 % of control | 88.0 ± 26.4 % of control | – | –
O=c1cc(N2CCOCC2)oc2c(-c3ccccc3)cccc12 [Inhibitor 29] | 79.3 ± 3.6 % of control | 75.5 ± 3.1 % of control | – | –
OC[C@@H]1O[C@H](n2cnc3cc(Cl)c(Cl)cc32)[C@@H](O)[C@H]1O [Inhibitor 66] | 56.4 ± 12.9 % of control | 120.8 ± 78.0 % of control | – | –
CNCCNS(=O)(=O)c1cccc2cnccc12 [Inhibitor 36] | 80.9 ± 3.0 % of control | 50.2 ± 29.4 % of control | – | –
O=C(O)c1cc(NCc2cc(O)ccc2O)ccc1O [Inhibitor 39, 2-hydroxy-5-(2,5-dihydroxybenzyl-amino) benzoic acid] | 103.0 ± 4.4 % of control | 148.9 ± 71.4 % of control | – | –

Compound | LRRK2 autophosphorylation Average ± SEM [1] | MBP phosphorylation Average ± SEM [2] | effect on LRRK2 autophosphorylation ([1]; screen at 16 μM) | effect on LRRK2-mediated phosphorylation of MBP ([2]; screen at 16 μM)
CC(C)(C)n1nc(-c2ccc(Cl)cc2)c2c(N)ncnc21 [Inhibitor 52] | 45.7 ± 22.1 % of control | 98.1 ± 44.2 % of control | – | –
CC(C)C(C(=O)OC(C#N)c1cccc(Oc2ccccc2)c1)c1ccc(Cl)cc1 (stereo not shown) [Inhibitor 82] | 80.4 ± 13.0 % of control | 61.5 ± 54.0 % of control | – | –
C#COC1C(C(=O)O)[C@H]2CC[C@@H]1O2 (stereo partly shown) [Inhibitor 73] | 78.8 ± 5.1 % of control | 128.9 ± 9.4 % of control | – | –
Oc1ccc(-c2nc(-c3ccc(F)cc3)c(-c3ccncc3)[nH]2)cc1 [Inhibitor 51] | 64.9 ± 20.9 % of control | 125.5 ± 52.6 % of control | – | –
COc1cc2ncc(-c3ccccc3)nc2cc1OC [Inhibitor 55] | 61.2 ± 9.6 % of control | 131.7 ± 34.2 % of control | – | –
CC(=O)c1c(O)c(C)c(O)c(Cc2c(O)c3c(c(C(=O)/C=C/c4ccccc4)c2O)OC(C)(C)C=C3)c1O [Inhibitor 58] | 28.1 ± 39.8 % of control | 147.2 ± 64.3 % of control | – | –
N#C/C(=C\c1ccc(O)c(O)c1)C(=O)Nc1ccccc1 [Inhibitor 7] | 56.1 ± 27.6 % of control | 75.6 ± 56.9 % of control | – | –
Cc1ccc(-c2nn(C(C)(C)C)c3ncnc(N)c23)cc1 [Inhibitor 24] | 88.3 ± 17.1 % of control | 103.6 ± 60.1 % of control | – | –
COc1cc2ncnc(Nc3cccc(Cl)c3)c2cc1OC [Inhibitor 18] | 63.7 ± 28.0 % of control | 110.0 ± 44.0 % of control | – | –
COC[C@H]1OC(=O)c2coc3c2[C@@]1(C)C1=C(C3=O)[C@@H]2CCC(=O)[C@@]2(C)C[C@H]1OC(C)=O [Inhibitor 30] | 83.0 ± 23.6 % of control | 66.8 ± 29.1 % of control | – | –
N=C(N)NCCNS(=O)(=O)c1cccc2cnccc12 [Inhibitor 37] | 81.1 ± 17.3 % of control | 106.7 ± 25.4 % of control | – | –
Cl.c1ccc([C@H]2CN3CCSC3=N2)cc1 [Inhibitor 78] | 74.6 ± 1.7 % of control | 133.2 ± 17.6 % of control | – | –
O=C1Nc2ccccc2/C1=C1\Nc2ccccc2C1=O [Inhibitor 69] | 82.0 ± 4.2 % of control | 110.3 ± 28.4 % of control | – | –
O=S(=O)(c1cccc2c(Cl)cccc12)N1CCCNCC1 [Inhibitor 43] | 71.6 ± 2.1 % of control | 120.2 ± 39.6 % of control | – | –
O=P(O)(O)Cc1ccccc1 [Inhibitor 74] | 68.3 ± 1.85 % of control | 121.8 ± 23.6 % of control | – | –
N#CC(C#N)=C(N)/C(C#N)=C/c1cc(O)c(O)c(O)c1 [Inhibitor 15] | 79 ± 49.6 % of control | 105.1 ± 19.1 % of control | – | –
C#COC1(C)[C@@H]2CC[C@@H](O2)C1(C)C(=O)O (stereo partly shown) [Inhibitor 71] | 75.9 ± 2.1 % of control | 99.8 ± 3.4 % of control | – | –
CN[C@@H]1C[C@H]2O[C@@](C)([C@@H]1OC)n1c3ccccc3c3c4c(c5c6ccccc6n2c5c31)C(=O)NC4 [Inhibitor 6, Staurosporine, reference compound] | 1.9 ± 1.0 % of control | 9.2 ± 6.4 % of control | substantially inhibited | substantially inhibited
Nc1ncc2[nH]cnc2n1 [Inhibitor 44, 2-aminopurine] | 95.3 ± 5.9 % of control | 77.2 ± 86.4 % of control | – | –
Cc1ccc(NC(=O)c2cccc(N(C)C)c2)cc1NC(=O)c1ccc(O)cc1 [Inhibitor 53] | 89.2 ± 2.7 % of control | 152.6 ± 38.0 % of control | – | –
C[C@@]12C(=O)OC(=O)[C@]1(C)[C@H]1CC[C@@H]2O1 [Inhibitor 72] | 69.1 ± 8.8 % of control | 109.7 ± 22.4 % of control | – | –
N#CC(C#N)=Cc1cc(O)c(O)c(O)c1 [Inhibitor 12] | 62.8 ± 15.8 % of control | 65.9 ± 31.4 % of control | – | –
Cc1cc2ncc(-c3ccccc3)nc2cc1C [Inhibitor 19] | 89.4 ± 12.5 % of control | 104.3 ± 14.6 % of control | – | –
N#CC(C#N)=C(N)/C(C#N)=C/c1ccc2[nH]ccc2c1 [Inhibitor 27] | 73.2 ± 8.8 % of control | 79.5 ± 17.8 % of control | – | –
